In ChEMBL document CHEMBL4004781, “Synthesis, biological evaluation, docking study and ulcerogenicity profiling of some novel quinoline-2-carboxamides as dual COXs/LOX inhibitors endowed with anti-inflammatory activity” (Eur J Med Chem, 2017):

Experiments:
[1] = target: T1, Prostaglandin G/H synthase 1 (Ovis aries, UniProt P05979); assay: Inhibition of ovine COX1 using arachidonic acid as substrate assessed as decrease in PGF2 production preincubated for 15 mins followed by substrate addition measured after 2 mins by enzyme immunoassay
T1 sequence (P05979 whole entry): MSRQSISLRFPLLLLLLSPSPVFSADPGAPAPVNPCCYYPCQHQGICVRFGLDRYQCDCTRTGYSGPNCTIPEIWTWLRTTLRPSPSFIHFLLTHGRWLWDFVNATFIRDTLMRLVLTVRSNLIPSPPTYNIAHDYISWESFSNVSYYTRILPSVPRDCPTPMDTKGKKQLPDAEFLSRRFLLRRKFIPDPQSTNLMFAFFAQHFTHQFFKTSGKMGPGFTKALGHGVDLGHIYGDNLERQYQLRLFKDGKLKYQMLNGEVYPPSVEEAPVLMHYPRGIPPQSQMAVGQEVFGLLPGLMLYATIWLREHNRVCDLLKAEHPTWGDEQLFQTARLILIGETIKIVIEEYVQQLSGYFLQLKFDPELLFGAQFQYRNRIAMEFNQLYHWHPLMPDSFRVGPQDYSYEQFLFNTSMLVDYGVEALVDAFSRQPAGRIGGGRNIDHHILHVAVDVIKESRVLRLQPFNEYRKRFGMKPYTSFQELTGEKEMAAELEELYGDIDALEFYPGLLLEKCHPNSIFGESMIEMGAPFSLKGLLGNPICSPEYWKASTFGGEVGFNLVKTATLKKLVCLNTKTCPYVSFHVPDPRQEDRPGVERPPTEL

[2] = target: T2, Prostaglandin G/H synthase 2 (Homo sapiens, UniProt P35354); assay: Inhibition of recombinant human COX2 using arachidonic acid as substrate assessed as decrease in PGF2 production preincubated for 15 mins followed by substrate addition measured after 2 mins by enzyme immunoassay
T2 sequence (P35354 whole entry): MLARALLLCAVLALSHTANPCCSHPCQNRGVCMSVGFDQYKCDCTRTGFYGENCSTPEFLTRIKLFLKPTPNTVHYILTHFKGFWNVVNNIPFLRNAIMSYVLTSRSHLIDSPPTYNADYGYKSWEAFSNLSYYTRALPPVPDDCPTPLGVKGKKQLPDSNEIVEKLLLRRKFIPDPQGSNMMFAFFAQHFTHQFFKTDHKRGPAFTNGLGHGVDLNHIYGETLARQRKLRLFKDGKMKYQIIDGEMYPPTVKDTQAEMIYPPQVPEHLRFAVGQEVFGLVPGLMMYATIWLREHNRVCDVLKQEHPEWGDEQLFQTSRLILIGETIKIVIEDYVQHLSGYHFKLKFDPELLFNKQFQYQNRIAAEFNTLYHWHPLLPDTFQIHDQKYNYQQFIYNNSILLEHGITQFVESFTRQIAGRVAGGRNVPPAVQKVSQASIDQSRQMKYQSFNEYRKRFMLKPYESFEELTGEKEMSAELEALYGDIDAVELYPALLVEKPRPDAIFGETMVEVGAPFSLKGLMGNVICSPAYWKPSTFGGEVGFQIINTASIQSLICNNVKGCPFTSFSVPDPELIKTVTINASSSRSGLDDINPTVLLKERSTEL

[3] = Selectivity ratio of IC50 for ovine COX1 to IC50 for recombinant human COX2
[4] = Inhibition of soybean 15-LOX assessed as decrease in leukotriene formation by enzyme immunoassay; design: species or system Glycine max
[5] = test system: Rattus norvegicus; assay: Antiinflammatory activity in albino rat assessed as inhibition of carrageenan-induced paw edema at 28 umol/kg, ip administered 1 hr post carrageenan challenge measured at 1 hr post compound dosing relative to control; assay type: functional
[6] = test system: Rattus norvegicus; assay: Antiinflammatory activity in albino rat assessed as inhibition of carrageenan-induced paw edema at 28 umol/kg, ip administered 1 hr post carrageenan challenge measured at 3 hrs post compound dosing relative to control; assay type: functional
[7] = test system: Rattus norvegicus; assay: Antiinflammatory activity in albino rat assessed as inhibition of carrageenan-induced paw edema at 28 umol/kg, ip administered 1 hr post carrageenan challenge measured at 5 hrs post compound dosing relative to control; assay type: functional
[8] = test system: Rattus norvegicus; assay: Ulcerogenic effect in albino rat assessed as ulcer index at 50 umol/kg, po qd administered for 3 days measured 1 hr post last dose; assay type: toxicity, organism-based; details: in vivo
[9] = test system: Rattus norvegicus; assay: Ulcerogenic effect in albino rat assessed as congestion of blood vessels at 50 umol/kg, po qd administered for 3 days measured 1 hr post last dose by hematoxylin/eosin staining-based light microscopic method; assay type: toxicity, organism-based; details: in vivo
[10] = test system: Rattus norvegicus; assay: Ulcerogenic effect in albino rat assessed as effect on architecture of gastric mucosa at 50 umol/kg, po qd administered for 3 days measured 1 hr post last dose by hematoxylin/eosin staining-based light microscopic method; assay type: toxicity, organism-based; details: in vivo
[11] = test system: Rattus norvegicus; assay: Ulcerogenic effect in albino rat assessed as effect on architecture of gastric mucosal surface at 50 umol/kg, po qd administered for 3 days measured 1 hr post last dose by scanning electron microscopic method; assay type: toxicity, organism-based; details: in vivo
[12] = test system: Rattus norvegicus; assay: Ulcerogenic effect in albino rat assessed as loss of demarcation between surface mucus cells at 50 umol/kg, po qd administered for 3 days measured 1 hr post last dose by scanning electron microscopic method; assay type: toxicity, organism-based; details: in vivo
[13] = Inhibition of soybean 15-LOX; design: species or system Glycine max
[14] = test system: Rattus norvegicus; assay: Ulcerogenic effect in albino rat assessed as maceration of gastric mucosa at 50 umol/kg, po qd administered for 3 days measured 1 hr post last dose by hematoxylin/eosin staining-based light microscopic method; assay type: toxicity, organism-based; details: in vivo
[15] = test system: Rattus norvegicus; assay: Ulcerogenic effect in albino rat assessed as lymphocytic infiltration at 50 umol/kg, po qd administered for 3 days measured 1 hr post last dose by hematoxylin/eosin staining-based light microscopic method; assay type: toxicity, organism-based; details: in vivo
[16] = test system: Rattus norvegicus; assay: Ulcerogenic effect in albino rat assessed as submucosal edema at 50 umol/kg, po qd administered for 3 days measured 1 hr post last dose by hematoxylin/eosin staining-based light microscopic method; assay type: toxicity, organism-based; details: in vivo
[17] = test system: Rattus norvegicus; assay: Ulcerogenic effect in albino rat assessed as exfoliation of superficial epithelial cells at 50 umol/kg, po qd administered for 3 days measured 1 hr post last dose by hematoxylin/eosin staining-based light microscopic method; assay type: toxicity, organism-based; details: in vivo
[18] = test system: Rattus norvegicus; assay: Ulcerogenic effect in albino rat assessed as induction of necrosis in gastric mucosal cells at 50 umol/kg, po qd administered for 3 days measured 1 hr post last dose by hematoxylin/eosin staining-based light microscopic method; assay type: toxicity, organism-based; details: in vivo
[19] = test system: Rattus norvegicus; assay: Ulcerogenic effect in albino rat assessed as complete shedding of surface mucous cells leaving underlying gastric pit walls and openings with honeycomb shape at 50 umol/kg, po qd administered for 3 days measured 1 hr post last dose by scanning electron microscopic method; assay type: toxicity, organism-based; details: in vivo

Cc1c(C(=O)NCCc2ccc(N3CCCC3)cc2)nc2ccc(Cl)cc2c1O
IC50 [1]: 7.5 µM | IC50 [2]: 1.69 µM | Ratio IC50 [3]: 4.43 | IC50 [4]: 6.74 µM | inhibition in vivo at 28 µmol/kg [5]: 41% | inhibition in vivo at 28 µmol/kg [6]: 48% | inhibition in vivo at 28 µmol/kg [7]: 49.9%

Cc1c(C(=O)NC2CCCCC2)nc2ccc(Cl)cc2c1O
IC50 [1]: 7.8 µM | IC50 [2]: 1.41 µM | Ratio IC50 [3]: 5.53 | IC50 [4]: 6.54 µM | inhibition in vivo at 28 µmol/kg [5]: 43.5% | inhibition in vivo at 28 µmol/kg [6]: 50.1% | inhibition in vivo at 28 µmol/kg [7]: 52%

Cc1c(C(=O)NCCc2ccc(N(C)C)cc2)nc2ccc(Cl)cc2c1O
IC50 [1]: 8.3 µM | IC50 [2]: 1.67 µM | Ratio IC50 [3]: 4.97 | inhibition in vivo at 28 µmol/kg [5]: 39.1% | inhibition in vivo at 28 µmol/kg [6]: 46.9% | inhibition in vivo at 28 µmol/kg [7]: 48.6%

Cc1c(C(=O)N2CCNCC2)nc2ccc(Cl)cc2c1O
IC50 [1]: 10.7 µM | IC50 [2]: 2.81 µM | Ratio IC50 [3]: 3.8 | IC50 [4]: 8.43 µM | inhibition in vivo at 28 µmol/kg [5]: 31.1% | inhibition in vivo at 28 µmol/kg [6]: 37.5% | inhibition in vivo at 28 µmol/kg [7]: 38%

Cc1c(C(=O)NC(CO)Cc2ccccc2)nc2ccc(Cl)cc2c1O (stereo unspecified)
IC50 [1]: 11.4 µM | IC50 [2]: 2.78 µM | Ratio IC50 [3]: 4.1 | inhibition in vivo at 28 µmol/kg [5]: 34.2% | inhibition in vivo at 28 µmol/kg [6]: 39.5% | inhibition in vivo at 28 µmol/kg [7]: 41.3%

Cc1c(C(=O)NCc2nc3ccccc3[nH]2)nc2ccc(Cl)cc2c1O
IC50 [1]: 7.9 µM | IC50 [2]: 1.21 µM | Ratio IC50 [3]: 6.52 | IC50 [4]: 6.18 µM | inhibition in vivo at 28 µmol/kg [5]: 45.2% | inhibition in vivo at 28 µmol/kg [6]: 50.1% | inhibition in vivo at 28 µmol/kg [7]: 59.4% | UI [8]: 2.66 | Activity [9]: Toxic | Activity [10]: Non-Toxic | Activity [11]: Non-Toxic | Activity [12]: Toxic

CC(C)(C)Nc1c(-c2cc3ccccc3nc2Cl)nc2sccn12
IC50 [13]: 11.5 µM

Cc1c(C(=O)NCCc2ccccc2)nc2ccc(Cl)cc2c1O
IC50 [1]: 11.4 µM | IC50 [2]: 2.54 µM | Ratio IC50 [3]: 4.48 | IC50 [4]: 9.87 µM | inhibition in vivo at 28 µmol/kg [5]: 35.8% | inhibition in vivo at 28 µmol/kg [6]: 40.9% | inhibition in vivo at 28 µmol/kg [7]: 43.4%

Cc1c(C(=O)N2CCCCC2)nc2ccc(Cl)cc2c1O
IC50 [1]: 12.4 µM | IC50 [2]: 3.14 µM | Ratio IC50 [3]: 3.94 | IC50 [4]: 10.4 µM | inhibition in vivo at 28 µmol/kg [5]: 30.1% | inhibition in vivo at 28 µmol/kg [6]: 35.4% | inhibition in vivo at 28 µmol/kg [7]: 36.8%

Cc1ccc(-c2cc(C(F)(F)F)nn2-c2ccc(S(N)(=O)=O)cc2)cc1 [CELECOXIB]
inhibition in vivo at 28 µmol/kg [5]: 57.1% | inhibition in vivo at 28 µmol/kg [6]: 68.4% | inhibition in vivo at 28 µmol/kg [7]: 71.2%

Cc1c(C(=O)NCCc2ccc(N3CCCCC3)cc2)nc2ccc(Cl)cc2c1O
IC50 [1]: 10.4 µM | IC50 [2]: 2.11 µM | Ratio IC50 [3]: 4.92 | IC50 [4]: 7.32 µM | inhibition in vivo at 28 µmol/kg [5]: 39.8% | inhibition in vivo at 28 µmol/kg [6]: 46.9% | inhibition in vivo at 28 µmol/kg [7]: 48.2%

Cc1ccc(Cl)c(Nc2ccccc2C(=O)O)c1Cl [MECLOFENAMATE SODIUM]
IC50 [4]: 5.64 µM

Cc1c(C(=O)N(C)c2ccccc2)nc2ccc(Cl)cc2c1O
IC50 [1]: 8.3 µM | IC50 [2]: 1.74 µM | Ratio IC50 [3]: 4.77 | inhibition in vivo at 28 µmol/kg [5]: 38.9% | inhibition in vivo at 28 µmol/kg [6]: 45.6% | inhibition in vivo at 28 µmol/kg [7]: 47%

COc1ccc2c(c1)c(CC(=O)O)c(C)n2C(=O)c1ccc(Cl)cc1 [INDOMETHACIN]
UI [8]: 17.23 | Activity [14]: Toxic | Activity [9]: Toxic | Activity [15]: Toxic | Activity [16]: Toxic | Activity [17]: Toxic | Activity [18]: Toxic | Activity [19]: Toxic

Cc1c(C(=O)NC2CCCN(Cc3ccccc3)C2)nc2ccc(Cl)cc2c1O (stereo unspecified)
IC50 [1]: 13.1 µM | IC50 [2]: 3.54 µM | Ratio IC50 [3]: 3.7 | inhibition in vivo at 28 µmol/kg [5]: 31.4% | inhibition in vivo at 28 µmol/kg [6]: 35.9% | inhibition in vivo at 28 µmol/kg [7]: 37.8%

Cc1c(C(=O)NCCc2ccc(N3CCCC3C)cc2)nc2ccc(Cl)cc2c1O (stereo unspecified)
IC50 [1]: 9.8 µM | IC50 [2]: 1.91 µM | Ratio IC50 [3]: 5.1 | inhibition in vivo at 28 µmol/kg [5]: 41% | inhibition in vivo at 28 µmol/kg [6]: 48% | inhibition in vivo at 28 µmol/kg [7]: 49.7%

Cc1c(C(=O)N2CCN(c3ccccc3)CC2)nc2ccc(Cl)cc2c1O
IC50 [1]: 8.6 µM | IC50 [2]: 1.13 µM | Ratio IC50 [3]: 7.61 | IC50 [4]: 5.91 µM | inhibition in vivo at 28 µmol/kg [5]: 49.5% | inhibition in vivo at 28 µmol/kg [6]: 61% | inhibition in vivo at 28 µmol/kg [7]: 65% | UI [8]: 2.5 | Activity [15]: Toxic | Activity [10]: Non-Toxic | Activity [11]: Non-Toxic | Activity [12]: Toxic

CCOC(=O)C(Cc1ccccc1)NC(=O)c1nc2ccc(Cl)cc2c(O)c1C (stereo unspecified)
IC50 [1]: 9.6 µM | IC50 [2]: 1.91 µM | Ratio IC50 [3]: 5.02 | IC50 [4]: 7.14 µM | inhibition in vivo at 28 µmol/kg [5]: 40.5% | inhibition in vivo at 28 µmol/kg [6]: 47.3% | inhibition in vivo at 28 µmol/kg [7]: 49%
